Results as given in PubChem BioAssay AID2060505 (Molecular Pharmacology Branch, DTP, NCI, 2025).

System: 633275-114-R-J1-PDC complex spheroids, viability
Assay: Anticancer human tumor 633275-114-R-J1-PDC patient-derived endometrial adenocarcinoma cell line growth inhibition [GQUAD]
Conditions: for IC50: curve of first compound; for viability, T/C: stronger effect = lower value; active = viability on the fitted dose curve at most 10% of control; inactive = the rest
Summary of the method: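 Viability of tumor cells grown as complex spheroids with endothelial and stromal cells, exposed to drug combinations. Top concentration at or near clinical Cmax (else 10 microM), diluted in half-log increments.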

[1] = second compound 0.0316 µM, first compound 0.0316 µM
[2] = second compound 0.0316 µM, first compound 0.316 µM
[3] = second compound 0.1 µM, first compound 0.0316 µM
[4] = second compound 0.1 µM, first compound 0.316 µM
[5] = second compound 0.316 µM, first compound 0.0316 µM
[6] = second compound 0.316 µM, first compound 0.316 µM
[7] = second compound 1 µM, first compound 0.0316 µM
[8] = second compound 1 µM, first compound 0.316 µM
[9] = second compound 3.16 µM, first compound 0.0316 µM
[10] = second compound 3.16 µM, first compound 0.316 µM
[11] = second compound 10 µM, first compound 0.0316 µM
[12] = second compound 10 µM, first compound 0.316 µM
[13] = second compound 0.0316 µM, first compound 0.1 µM
[14] = second compound 0.0316 µM, first compound 1 µM
[15] = second compound 0.0316 µM, first compound 3.16 µM
[16] = second compound 0.0316 µM, first compound 10 µM
[17] = second compound 0.1 µM, first compound 0.1 µM
[18] = second compound 0.1 µM, first compound 1 µM
[19] = second compound 0.1 µM, first compound 3.16 µM
[20] = second compound 0.1 µM, first compound 10 µM
[21] = second compound 0.316 µM, first compound 0.1 µM
[22] = second compound 0.316 µM, first compound 1 µM
[23] = second compound 0.316 µM, first compound 3.16 µM
[24] = second compound 0.316 µM, first compound 10 µM
[25] = second compound 1 µM, first compound 0.1 µM
[26] = second compound 1 µM, first compound 1 µM
[27] = second compound 1 µM, first compound 3.16 µM
[28] = second compound 1 µM, first compound 10 µM
[29] = second compound 3.16 µM, first compound 0.1 µM
[30] = second compound 3.16 µM, first compound 1 µM
[31] = second compound 3.16 µM, first compound 3.16 µM
[32] = second compound 3.16 µM, first compound 10 µM
[33] = second compound 10 µM, first compound 0.1 µM
[34] = second compound 10 µM, first compound 1 µM
[35] = second compound 10 µM, first compound 3.16 µM
[36] = second compound 10 µM, first compound 10 µM
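Also: spheroids exposed to the agents for seven days.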
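For viability, T/C in this document: percent of DMSO vehicle control viability which is 100%.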

CC[C@@]1(O)C(=O)OCc2c1cc1n(c2=O)Cc2cc3c(CN(C)C)c(O)ccc3nc2-1 + CN(C)c1ccc(Nc2c3ccc(NC(=O)CCN4CCCC4)cc3nc3cc(NC(=O)CCN4CCCC4)ccc23)cc1
71.5 nM: IC50 (second compound 0.0316 µM)
< 0.999 nM: IC50 (second compound 10 µM)
inactive: viability, T/C (second compound 0.0316 µM, first compound 0.000999 µM) 96.1% | viability, T/C (second compound 0.0316 µM, first compound 0.00316 µM) 105% | viability, T/C (second compound 0.0316 µM, first compound 0.00999 µM) 98.3% | viability, T/C [1] 75.2% | viability, T/C (second compound 0.0316 µM, first compound 0.0999 µM) 39.7% | viability, T/C [2] 35.9% | viability, T/C (second compound 0.1 µM, first compound 0.000999 µM) 93.4% | viability, T/C (second compound 0.1 µM, first compound 0.00316 µM) 101% | viability, T/C (second compound 0.1 µM, first compound 0.00999 µM) 99% | viability, T/C [3] 74.1% | viability, T/C (second compound 0.1 µM, first compound 0.0999 µM) 42% | viability, T/C [4] 36% | viability, T/C (second compound 0.316 µM, first compound 0.000999 µM) 101% | viability, T/C (second compound 0.316 µM, first compound 0.00316 µM) 104% | viability, T/C (second compound 0.316 µM, first compound 0.00999 µM) 85.5% | viability, T/C [5] 72.9% | viability, T/C (second compound 0.316 µM, first compound 0.0999 µM) 42.6% | viability, T/C [6] 36.3% | viability, T/C (second compound 1 µM, first compound 0.000999 µM) 98% | viability, T/C (second compound 1 µM, first compound 0.00316 µM) 88.6% | viability, T/C (second compound 1 µM, first compound 0.00999 µM) 91.2% | viability, T/C [7] 64.8% | viability, T/C (second compound 1 µM, first compound 0.0999 µM) 36.7% | viability, T/C [8] 35% | viability, T/C (second compound 3.16 µM, first compound 0.000999 µM) 82.3% | viability, T/C (second compound 3.16 µM, first compound 0.00316 µM) 82% | viability, T/C (second compound 3.16 µM, first compound 0.00999 µM) 80.7% | viability, T/C [9] 54% | viability, T/C (second compound 3.16 µM, first compound 0.0999 µM) 40.6% | viability, T/C [10] 27% | viability, T/C (second compound 10 µM, first compound 0.000999 µM) 35.2% | viability, T/C (second compound 10 µM, first compound 0.00316 µM) 41.3% | viability, T/C (second compound 10 µM, first compound 0.00999 µM) 28.8% | viability, T/C [11] 26.5% | viability, T/C (second compound 10 µM, first compound 0.0999 µM) 15.3% | viability, T/C [12] 13.7%
73 nM: IC50 (second compound 0.1 µM)
58.2 nM: IC50 (second compound 1 µM)
48.3 nM: IC50 (second compound 3.16 µM)
81.2 nM: IC50 (second compound 0.316 µM)

O=C(NO)c1cnc(N2CCN(S(=O)(=O)c3ccc4ccccc4c3)CC2)nc1 + Cc1[nH]c2ccc(F)cc2c1-c1nc2c3cccnc3c3ncccc3c2[nH]1
362 nM: IC50 (second compound 10 µM)
574 nM: IC50 (second compound 0.316 µM)
371 nM: IC50 (second compound 0.0316 µM)
inactive: viability, T/C [1] 88.1% | viability, T/C [13] 77.9% | viability, T/C [2] 51.7% | viability, T/C [14] 29% | viability, T/C [15] 16.9% | viability, T/C [3] 91.7% | viability, T/C [17] 83.9% | viability, T/C [4] 63.5% | viability, T/C [18] 32.1% | viability, T/C [19] 16% | viability, T/C [5] 82.3% | viability, T/C [21] 86.2% | viability, T/C [6] 62.4% | viability, T/C [22] 34.7% | viability, T/C [23] 18.5% | viability, T/C [7] 91.3% | viability, T/C [25] 77.2% | viability, T/C [8] 57.9% | viability, T/C [26] 37% | viability, T/C [27] 17.2% | viability, T/C [9] 72.3% | viability, T/C [29] 60.2% | viability, T/C [10] 52.6% | viability, T/C [30] 35.2% | viability, T/C [31] 15.8% | viability, T/C [11] 62.1% | viability, T/C [33] 58.3% | viability, T/C [12] 54.8% | viability, T/C [34] 32.5% | viability, T/C [35] 17.8%
active: viability, T/C [16] 5.26% | viability, T/C [20] 3.49% | viability, T/C [24] 1.56% | viability, T/C [28] 1.48% | viability, T/C [32] 2.67% | viability, T/C [36] 3.92%
492 nM: IC50 (second compound 1 µM)
336 nM: IC50 (second compound 3.16 µM)
527 nM: IC50 (second compound 0.1 µM)

CC(=O)O[C@H]1C(=O)[C@@]2(C)[C@H]([C@H](OC(=O)c3ccccc3)[C@]3(O)C[C@H](OC(=O)[C@H](O)[C@@H](NC(=O)c4ccccc4)c4ccccc4)C(C)=C1C3(C)C)[C@]1(OC(C)=O)CO[C@@H]1C[C@@H]2O + Cc1[nH]c2ccc(F)cc2c1-c1nc2c3cccnc3c3ncccc3c2[nH]1
inactive: viability, T/C [1] 50.9% | viability, T/C [13] 25.6% | viability, T/C [2] 20.8% | viability, T/C [14] 19.7% | viability, T/C [15] 20.6% | viability, T/C [16] 18.9% | viability, T/C [3] 45.3% | viability, T/C [17] 25.8% | viability, T/C [4] 20.2% | viability, T/C [18] 18.4% | viability, T/C [19] 19.1% | viability, T/C [20] 18.9% | viability, T/C [5] 47.8% | viability, T/C [21] 22.1% | viability, T/C [6] 19.9% | viability, T/C [22] 19.5% | viability, T/C [23] 19.4% | viability, T/C [24] 19.1% | viability, T/C [7] 41% | viability, T/C [25] 21.3% | viability, T/C [8] 19.8% | viability, T/C [26] 17.7% | viability, T/C [27] 18.2% | viability, T/C [28] 17.2% | viability, T/C [9] 38.2% | viability, T/C [29] 17.7% | viability, T/C [10] 16.3% | viability, T/C [30] 16.5% | viability, T/C [31] 19.4% | viability, T/C [32] 17.7% | viability, T/C [11] 36.8% | viability, T/C [33] 18.8% | viability, T/C [12] 17.5% | viability, T/C [34] 18.8% | viability, T/C [35] 18.4% | viability, T/C [36] 17.2%
32.9 nM: IC50 (second compound 0.0316 µM)
< 31.6 nM: IC50 (second compound 0.1 µM) | IC50 (second compound 0.316 µM) | IC50 (second compound 1 µM) | IC50 (second compound 3.16 µM) | IC50 (second compound 10 µM)
